Test results as given in paper PMC11061835, “Elucidating the Mechanism of Metabolism of Cannabichromene by Human Cytochrome P450s” (Journal of Natural Products, 2024).
Several values for one entry are separate records, joined by “and”; a condition that tells them apart may be missing. Equal values may be shown once.

How the values were obtained:
[1] = test system: BV2 microglial cells, stimulated with lipopolysaccharide (LPS); assay: Nitric oxide determination (Griess assay) in LPS-stimulated BV2 cells; format: cell-based, mouse; details: 0.1, 1.0, 2.5, 5.0 μM, vs cells treated with LPS only
Procedure: BV2 cells were a gift from Dr. Bob McCusker, University of Illinois. They were cultured and maintained at 37 °C in a humidified atmosphere of 95% air and 5% CO2 in high-glucose Dulbecco’s modified Eagle’s (DMEM) medium (Cat No. 10-013-CV, Corning Life Sciences), supplemented with 5% heat-inactivated fetal bovine serum (FBS), streptomycin (100 μg/mL), and penicillin (100 units/mL). Stocks of all the minor cannabinoids were made in ethanol and stored at −80 °C and diluted as required before cell treatment. A final concentration of ethanol was maintained at 0.1% in the cell culture experiments.
First, cell viability of BV2 cells was assessed after treatment with cannabinoids, at various concentrations (0.1, 1.0, 2.5, 5.0 μM), utilizing Cayman’s MTT assay. […] Once viability was determined, we measured the production of pro-inflammatory markers such as nitric oxide (NO), interleukin 6 (IL-6), tumor necrosis factor alpha (TNFα), and arginase 1 (Arg1) after BV2 cells were treated with minor cannabinoids and then stimulated with lipopolysaccharide (LPS) to evoke an inflammatory response.
BV-2 cells were plated at a density of 50 000 cells/well in a 24-well plate at 37 °C under controlled conditions. Cells were pretreated with the minor cannabinoids at various concentrations (0.1, 1.0, 2.5, 5.0 μM) for 4 h and then stimulated with LPS for 24 h. The culture medium was removed and saved for the determination of nitric oxide production through Cayman’s Griess assay. IL-6, TNFα, and Arginase 1 production was also determined utilizing collected medium. For the Greiss assay, in a 96-well plate, 100 μL of culture medium was used, and 50 μL of both Greiss reagent-1 and Greiss reagent-2 was added and incubated for 10 min. The absorbance was measured at 540 nm using a plate reader (SpectraMax iD5). The quantification was done using a calibration curve that was generated using the sodium nitrite standard obtained from Cayman Chemicals.

[2] = molecular target: T1, CYP2C8 (Homo sapiens, UniProt P10632); assay: Spectroscopic titration (Soret shift), CYP2C8; format: binding; details: CYP2C8, absence of CPR
T1 construct: His-tag; made in house; host or cells: E. coli DH-5α with pTGro7 plasmid
T1 sequence (P10632 1-490): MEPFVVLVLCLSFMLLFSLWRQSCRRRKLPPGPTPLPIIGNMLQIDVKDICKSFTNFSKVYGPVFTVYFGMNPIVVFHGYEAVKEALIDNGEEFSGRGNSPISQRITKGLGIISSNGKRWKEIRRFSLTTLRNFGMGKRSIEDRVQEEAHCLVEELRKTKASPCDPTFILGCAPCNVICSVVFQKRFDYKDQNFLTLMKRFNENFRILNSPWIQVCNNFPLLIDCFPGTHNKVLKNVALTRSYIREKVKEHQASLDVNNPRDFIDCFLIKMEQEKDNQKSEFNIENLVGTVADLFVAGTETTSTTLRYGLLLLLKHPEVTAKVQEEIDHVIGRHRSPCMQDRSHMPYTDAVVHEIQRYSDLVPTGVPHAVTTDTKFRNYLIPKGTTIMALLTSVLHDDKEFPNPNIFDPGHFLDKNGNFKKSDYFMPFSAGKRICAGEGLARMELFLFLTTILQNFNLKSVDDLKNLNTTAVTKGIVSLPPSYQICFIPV
Procedure: CBC binding to various CYPs was determined by analyzing the Soret shift from ∼417 to ∼390 nm. CBC (stock 10 mM) was dissolved in ethanol and titrated with different CYPs at room temperature. Buffer-exchanged CYP2J2, CYP2D6, CYP3A4, and CYP2C8 (concentrations of proteins were kept between 4 and 5 μM) were dissolved in 0.1 M phosphate buffer (pH = 7.4), and initial spectra were recorded from 200 to 800 nm with a prominent peak at 417 nm. The concentration of CBC was varied from 0 to 100 μM keeping the final concentration of substrate in EtOH not more than 1% in cuvette. 0–4 μL of stock CBC was added using a Hamilton syringe in both the sample and blank cuvettes. The mixture was incubated for 5 min at 37 °C, and absorbance spectra were recorded using a Cary Bio 300 UV–vis spectrophotometer (Agilent Technologies, Santa Clara, CA). To eliminate the background absorbance, we derived the final spectra by […].

In the case of `CCCCCc1cc(O)c2c(c1)OC(C)(CC/C=C(\C)CO)C=C2` (stereo not drawn) [8′-hydroxy-CBC], the “effect on NO release/production” value [1] is reported as “elevated levels”.
In the case of `CCCCCc1cc(O)c2c(c1)OC(C)(CCC=C(C)C)C=C2` (stereo not drawn) [CBC, Cannabichromene], the “ΔAmax (spin state change due to heme perturbation)” value [2] is reported as 0.15 ± 0.00 and ~0.15 and the Kd ([2]; read-out: Kd(app)) is reported as 38.1 µM and ~38 µM.
